Tests used:
[1] = target: T1, Alpha-1A adrenergic receptor (Homo sapiens, UniProt P35348); type: functional, cell-based
T1 sequence (P35348 whole entry): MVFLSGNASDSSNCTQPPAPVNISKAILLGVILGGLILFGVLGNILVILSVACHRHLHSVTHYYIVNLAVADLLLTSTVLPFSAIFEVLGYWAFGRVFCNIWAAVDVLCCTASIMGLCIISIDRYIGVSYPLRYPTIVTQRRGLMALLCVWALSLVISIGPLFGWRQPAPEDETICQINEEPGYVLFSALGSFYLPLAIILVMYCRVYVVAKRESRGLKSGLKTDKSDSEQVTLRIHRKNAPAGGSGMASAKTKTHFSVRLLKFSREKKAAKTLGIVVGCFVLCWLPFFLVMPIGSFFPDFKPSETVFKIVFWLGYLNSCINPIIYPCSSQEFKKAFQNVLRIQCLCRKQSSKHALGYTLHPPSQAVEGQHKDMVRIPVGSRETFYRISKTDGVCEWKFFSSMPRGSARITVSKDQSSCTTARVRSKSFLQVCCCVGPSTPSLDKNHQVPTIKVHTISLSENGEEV

[2] = target: Glutamate receptor ionotropic, NMDA 1 (Rattus norvegicus, UniProt P35439)
[3] = target: T2, Equilibrative nucleoside transporter 1 (Homo sapiens, UniProt Q99808)
T2 sequence (Q99808 whole entry): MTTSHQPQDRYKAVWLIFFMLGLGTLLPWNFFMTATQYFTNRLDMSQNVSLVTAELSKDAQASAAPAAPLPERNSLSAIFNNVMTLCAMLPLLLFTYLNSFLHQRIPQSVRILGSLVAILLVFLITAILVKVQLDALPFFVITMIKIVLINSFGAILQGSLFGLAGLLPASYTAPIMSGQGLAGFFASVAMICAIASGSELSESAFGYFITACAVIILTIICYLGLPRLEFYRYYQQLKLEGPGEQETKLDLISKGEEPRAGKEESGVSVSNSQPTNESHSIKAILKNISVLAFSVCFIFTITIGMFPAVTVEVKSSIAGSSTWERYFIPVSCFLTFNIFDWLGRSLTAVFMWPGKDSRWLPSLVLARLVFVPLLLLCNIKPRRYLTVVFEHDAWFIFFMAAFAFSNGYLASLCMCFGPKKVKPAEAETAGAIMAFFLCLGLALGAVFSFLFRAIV

[4] = target: Growth hormone secretagogue receptor type 1 (Homo sapiens, UniProt Q92847)
Chain of Growth hormone secretagogue receptor type 1 (Q92847 whole entry): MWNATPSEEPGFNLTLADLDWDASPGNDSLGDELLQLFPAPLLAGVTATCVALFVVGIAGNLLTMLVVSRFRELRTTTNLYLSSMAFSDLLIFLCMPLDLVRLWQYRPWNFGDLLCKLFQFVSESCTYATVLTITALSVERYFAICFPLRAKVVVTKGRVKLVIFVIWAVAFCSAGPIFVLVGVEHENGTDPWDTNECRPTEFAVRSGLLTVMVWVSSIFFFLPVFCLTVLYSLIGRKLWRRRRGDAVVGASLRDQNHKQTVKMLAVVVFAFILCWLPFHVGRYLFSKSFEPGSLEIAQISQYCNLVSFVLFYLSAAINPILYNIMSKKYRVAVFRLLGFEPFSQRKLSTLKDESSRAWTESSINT

[5] = target: T3, Cholecystokinin receptor type A (Homo sapiens, UniProt P32238)
T3 sequence (P32238 whole entry): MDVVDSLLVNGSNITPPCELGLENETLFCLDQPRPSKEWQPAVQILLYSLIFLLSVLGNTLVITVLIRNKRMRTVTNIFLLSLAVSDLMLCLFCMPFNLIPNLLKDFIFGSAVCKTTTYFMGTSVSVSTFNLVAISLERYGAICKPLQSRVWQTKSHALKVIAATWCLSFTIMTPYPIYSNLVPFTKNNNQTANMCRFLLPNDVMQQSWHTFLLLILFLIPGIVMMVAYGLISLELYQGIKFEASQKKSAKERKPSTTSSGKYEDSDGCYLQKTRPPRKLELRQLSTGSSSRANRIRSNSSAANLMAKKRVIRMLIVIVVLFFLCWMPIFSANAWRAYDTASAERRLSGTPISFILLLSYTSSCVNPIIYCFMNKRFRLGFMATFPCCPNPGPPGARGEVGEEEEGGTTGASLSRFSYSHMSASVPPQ

Endothelin-1 receptor = target: T4, Endothelin-1 receptor (Homo sapiens, UniProt P25101)
T4 sequence (P25101 whole entry): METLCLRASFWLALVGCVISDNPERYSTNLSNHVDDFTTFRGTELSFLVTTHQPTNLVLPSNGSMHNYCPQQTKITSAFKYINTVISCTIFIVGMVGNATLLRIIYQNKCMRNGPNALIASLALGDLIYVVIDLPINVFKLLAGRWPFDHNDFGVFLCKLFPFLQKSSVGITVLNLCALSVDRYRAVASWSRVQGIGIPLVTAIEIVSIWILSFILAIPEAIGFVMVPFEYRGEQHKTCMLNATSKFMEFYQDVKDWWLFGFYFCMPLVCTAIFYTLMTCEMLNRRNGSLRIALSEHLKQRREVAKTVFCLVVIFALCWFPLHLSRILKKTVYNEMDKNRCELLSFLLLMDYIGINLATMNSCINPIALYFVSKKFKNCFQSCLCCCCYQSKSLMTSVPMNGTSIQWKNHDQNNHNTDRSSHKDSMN

[6] = target: Sodium-dependent serotonin transporter (Homo sapiens, UniProt P31645)
Chain of Sodium-dependent serotonin transporter (P31645 whole entry): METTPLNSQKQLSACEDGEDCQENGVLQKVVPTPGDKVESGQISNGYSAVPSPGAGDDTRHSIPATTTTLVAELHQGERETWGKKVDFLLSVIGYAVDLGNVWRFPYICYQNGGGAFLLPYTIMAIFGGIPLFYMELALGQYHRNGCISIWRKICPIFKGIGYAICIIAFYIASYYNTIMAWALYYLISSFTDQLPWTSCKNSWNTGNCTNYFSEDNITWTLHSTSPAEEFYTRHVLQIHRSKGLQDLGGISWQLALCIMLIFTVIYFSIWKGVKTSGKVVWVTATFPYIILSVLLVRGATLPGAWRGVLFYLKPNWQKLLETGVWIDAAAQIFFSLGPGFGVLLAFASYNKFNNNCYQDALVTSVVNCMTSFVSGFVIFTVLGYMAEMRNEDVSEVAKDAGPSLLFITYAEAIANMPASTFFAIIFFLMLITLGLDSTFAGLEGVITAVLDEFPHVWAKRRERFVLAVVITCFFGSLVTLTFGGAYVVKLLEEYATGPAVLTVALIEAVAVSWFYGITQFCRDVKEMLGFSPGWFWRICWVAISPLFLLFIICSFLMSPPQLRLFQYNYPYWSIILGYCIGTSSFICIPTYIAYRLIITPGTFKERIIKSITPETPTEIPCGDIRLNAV

[7] = target: Gamma-aminobutyric acid receptor subunit alpha-1 (Rattus norvegicus, UniProt P62813); type: functional
Chain of Gamma-aminobutyric acid receptor subunit alpha-1 (P62813 whole entry): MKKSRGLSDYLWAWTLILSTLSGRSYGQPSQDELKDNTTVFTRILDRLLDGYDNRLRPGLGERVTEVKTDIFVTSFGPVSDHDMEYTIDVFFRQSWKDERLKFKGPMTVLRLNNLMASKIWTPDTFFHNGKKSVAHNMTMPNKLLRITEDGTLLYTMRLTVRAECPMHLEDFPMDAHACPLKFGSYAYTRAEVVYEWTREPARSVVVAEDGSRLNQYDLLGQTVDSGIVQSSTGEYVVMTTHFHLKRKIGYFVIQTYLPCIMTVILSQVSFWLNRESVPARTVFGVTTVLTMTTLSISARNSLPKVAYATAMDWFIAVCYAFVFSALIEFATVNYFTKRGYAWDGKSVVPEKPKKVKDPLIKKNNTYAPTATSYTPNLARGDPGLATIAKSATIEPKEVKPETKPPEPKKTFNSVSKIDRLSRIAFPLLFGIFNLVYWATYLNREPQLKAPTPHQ

[8] = target: T5, Type-1 angiotensin II receptor (Homo sapiens, UniProt P30556)
T5 sequence (P30556 whole entry): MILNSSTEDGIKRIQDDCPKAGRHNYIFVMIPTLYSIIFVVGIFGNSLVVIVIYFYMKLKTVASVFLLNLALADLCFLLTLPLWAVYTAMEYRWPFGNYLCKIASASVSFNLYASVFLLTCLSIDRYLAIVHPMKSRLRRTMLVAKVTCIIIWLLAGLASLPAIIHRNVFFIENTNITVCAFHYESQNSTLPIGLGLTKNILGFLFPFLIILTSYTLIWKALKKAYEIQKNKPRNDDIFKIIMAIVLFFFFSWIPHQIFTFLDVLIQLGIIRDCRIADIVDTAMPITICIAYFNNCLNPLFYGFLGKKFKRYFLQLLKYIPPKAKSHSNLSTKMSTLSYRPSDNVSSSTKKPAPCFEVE

Adenosine receptor A1 = target: T6, Adenosine receptor A1 (Homo sapiens, UniProt P30542)
T6 sequence (P30542 whole entry): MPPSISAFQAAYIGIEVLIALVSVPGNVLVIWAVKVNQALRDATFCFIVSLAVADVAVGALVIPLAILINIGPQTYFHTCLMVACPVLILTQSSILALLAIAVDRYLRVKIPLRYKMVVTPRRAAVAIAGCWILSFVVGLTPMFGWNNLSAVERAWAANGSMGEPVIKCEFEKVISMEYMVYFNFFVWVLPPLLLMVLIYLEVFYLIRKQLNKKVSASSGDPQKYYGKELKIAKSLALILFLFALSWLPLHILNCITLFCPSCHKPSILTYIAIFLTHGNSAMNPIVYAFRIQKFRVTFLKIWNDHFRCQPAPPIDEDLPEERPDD

Mu-type opioid receptor = Mu-type opioid receptor (Homo sapiens, UniProt P35372)
Chain of Mu-type opioid receptor (P35372 whole entry): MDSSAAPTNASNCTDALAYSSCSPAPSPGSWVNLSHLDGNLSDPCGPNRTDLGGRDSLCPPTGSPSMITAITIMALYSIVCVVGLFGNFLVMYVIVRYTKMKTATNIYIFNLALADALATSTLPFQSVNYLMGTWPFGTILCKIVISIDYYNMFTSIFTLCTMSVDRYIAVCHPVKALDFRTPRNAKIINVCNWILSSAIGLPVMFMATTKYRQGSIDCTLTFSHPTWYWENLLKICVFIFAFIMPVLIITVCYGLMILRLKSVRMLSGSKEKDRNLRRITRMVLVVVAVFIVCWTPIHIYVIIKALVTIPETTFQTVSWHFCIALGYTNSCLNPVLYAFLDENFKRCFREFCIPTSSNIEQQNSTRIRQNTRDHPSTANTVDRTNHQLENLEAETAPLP
Also: assay procedure not described here.

Structure (SMILES): CC(=O)Oc1ccccc1C(=O)Nc1ncc([N+](=O)[O-])s1 [NITAZOXANIDE]
- AC50 [1]: > 10 µM
- AC50 [2]: > 30 µM
- AC50 [3]: 1.9 µM
- AC50 [4]: 15 µM
- AC50 [5]: 6.6 µM
- AC50 (Endothelin-1 receptor): 12 µM
- AC50 [6]: > 30 µM
- AC50 [7]: > 30 µM
- AC50 [8]: 5.6 µM
- AC50 (Adenosine receptor A1): 7.1 µM

Structure (SMILES): CCCCCCCCCCC[C@@H](C[C@@H]1OC(=O)[C@H]1CCCCCC)OC(=O)[C@H](CC(C)C)NC=O [ORLISTAT]
- AC50 [1]: > 30 µM
- AC50 [6]: > 30 µM

Structure (SMILES): O=C1[C@H]2CCCC[C@H]2C(=O)N1CCCCN1CCN(c2nsc3ccccc23)CC1 [PEROSPIRONE]
- AC50 [1]: > 30 µM
- AC50 [6]: 3.73 µM

Structure (SMILES): CN(C)CCC(c1ccccc1)c1ccccn1 (stereo not given) [PHENIRAMINE]
- AC50 [1]: > 30 µM
- AC50 [6]: 7.98 µM

Structure (SMILES): CC(C)COc1ccc(CNC(=O)N(Cc2ccc(F)cc2)C2CCN(C)CC2)cc1 [PIMAVANSERIN]
- AC50 [1]: > 30 µM
- AC50 [6]: > 30 µM

Structure (SMILES): CC(C)(C)C(=O)NCCCC(=O)O [PIVAGABINE]
- AC50 [1]: > 30 µM
- AC50 [6]: > 30 µM

Structure (SMILES): CC(C)[N+](C)(CCOC(=O)C1c2ccccc2Oc2ccccc21)C(C)C [PROPANTHELINE]
- AC50 [1]: > 30 µM
- AC50 [6]: > 30 µM

Structure (SMILES): CCOc1cc(CC(=O)N[C@@H](CC(C)C)c2ccccc2N2CCCCC2)ccc1C(=O)O [REPAGLINIDE]
- AC50 [3]: > 30 µM
- AC50 [4]: > 30 µM
- AC50 [5]: > 30 µM
- AC50 (Endothelin-1 receptor): > 30 µM
- AC50 [7]: > 30 µM
- AC50 [8]: > 30 µM
- AC50 (Adenosine receptor A1): > 30 µM
- AC50 (Mu-type opioid receptor): > 30 µM

Structure (SMILES): NC(=O)c1ncn([C@@H]2O[C@H](CO)[C@@H](O)[C@H]2O)n1 [RIBAVIRIN]
- AC50 [2]: > 10 µM
- AC50 [3]: > 30 µM
- AC50 [4]: > 10 µM
- AC50 [5]: > 10 µM
- AC50 [7]: > 10 µM
- AC50 [8]: > 10 µM
- AC50 (Mu-type opioid receptor): > 30 µM

Structure (SMILES): CN(C)C(=O)c1nc(CNC(=O)CN)n(-c2ccc(Cl)cc2C(=O)c2ccccc2Cl)n1 [RILMAZAFONE]
- AC50 [1]: > 30 µM
- AC50 [6]: > 30 µM

Structure (SMILES): NC(=O)NS(=O)(=O)c1ccc(N)cc1 [SULFACARBAMIDE]
- AC50 [1]: > 30 µM
- AC50 [6]: > 30 µM

Structure (SMILES): NCCc1ccc(O)cc1 [TYRAMINE]
- AC50 [1]: > 30 µM
- AC50 [6]: > 30 µM

Structure (SMILES): CCCCCCCCCCCCCCCC(=O)OC/C=C(C)/C=C/C=C(C)/C=C/C1=C(C)CCCC1(C)C [VITAMIN A PALMITATE]
- AC50 [1]: > 30 µM
- AC50 [6]: > 30 µM

— ChEMBL document CHEMBL5291721, “A preclinical secondary pharmacology resource illuminates target-adverse drug reaction associations of marketed drugs” (Nat Commun, 2023)
